Assay results published in paper PMC11357256, “Selectivity Screening and Structure–Cytotoxic Activity Observations of Selected Oleanolic Acid (OA)-Type Saponins from the Amaranthaceae Family on a Wiade Panel of Human Cancer Cell Lines” (Molecules, 2024).

Columns and labels:
Du-145 = test: MTT cell viability assay, Du-145 prostate carcinoma cells; type: cell-based; conditions: Homo sapiens
Description: (§1) Cell lines used in the study were grouped as follows: skin panel (melanomas: HTB140, derived from metastatic site: lymph node, ATCC Hs 294 T; malignant A375, ATCC CRL-1619; stage I primary WM793, RRID:CVCL 8787; skin keratinocytes HaCaT); prostate panel (prostate carcinomas: Du145, derived from metastatic site: brain, ATCC HTB-81; grade IV PC3, derived from metastatic site: bone, ATCC CRL-1435, LNCaP, derived from the metastatic site: lymph node, ATCC CRL-1740; prostate epithelial, PNT2, ECACC 95012613); gastrointestinal panel (colorectal adenocarcinomas: Caco2, ATCC HTB-37, HT29, ATCC HTB-38, DLD-1, ATCC CCL-221, HCT116, ATCC CCL-247, and colon epithelial cells CCD 841 CoN, ATCC CRL-1790; hepatocellular carcinoma HepG2, ATCC HB-8065); thyroid panel (follicular thyroid carcinoma FTC133, ECACC 9406090, undifferentiated thyroid carcinoma 8505C, ECACC 94090184, papillary thyroid carcinoma TPC-1, SCC147, normal thyroid follicular epithelial Nthy-ori 3–1, ECACC 90011609); and breast panel (ER-positive breast adenocarcinoma MCF7, ATCC HTB-22; ER-negative breast adenocarcinoma MDA-MB-231, ATCC HTB-26; breast epithelial MCF10A, ATCC CRL-10317). Cells were grown under standard conditions (37 °C, 5% CO2, relative humidity), and culture media (DMEM/F12 for PNT2, WM 793, HT29, PC3, FTC133, 8505 C, MDA-MB-231, TPC-1; DMEM Low Glucose for DU145; DMEM High Glucose for HTB140, A375, HaCaT; MEM with NEAA for Caco2 and MCF7; RPMI1640 with sodium pyruvate for LNCaP; DMEM/F12 with 20 ng/mL epidermal growth factor (EGF), 10 μg/mL insulin, 0.5 μg/mL hydrocortisone, 100 ng/mL cholera toxin) for MCF10A) supplemented with 10% fetal bovine serum (FBS) or 5% donor horse serum for MCF10A, and 1% antibiotics solution (10,000 U penicillin and 10 mg streptomycin/mL) […], as previously described. All cell lines, culture media, and supplements were from Sigma-Aldrich (Germany).
(§2) The cells were seeded in 96-well plates (1.5 × 10^4 cells/well). After 24 h, fresh medium was added, containing the tested compounds (0.5–100 μg/mL) and incubated for 24 or 48 h. Cell viability was determined by MTT assay, according to the manufacturer’s instructions, as described previously. Each experiment was performed in triplicate. The absorbance was measured at 570 nm using a Biotek Synergy microplate reader (BioTek Instruments Inc., Winooski, VT, USA). Cell viability was expressed as a percent of control (untreated cells). Doxorubicin was used as a reference drug.

MDA-MB-231 = test: MTT cell viability assay, MDA-MB-231 breast adenocarcinoma cells; type: cell-based; conditions: Homo sapiens
Description: as §1, §2

A375 = test: MTT cell viability assay, A375 malignant melanoma cells; type: cell-based, human; conditions: for IC50: Homo sapiens, A-375
Description: as §1, §2
(§3) The selectivity index (SI) was calculated from the following formula:SI = IC50 of compound in a normal cell line/IC50 of compound in cancer cell line.IC50, half maximal inhibitory concentration, is a concentration required to kill 50% of the cells.

PNT2 = test: MTT cell viability assay, PNT2 normal prostate epithelial cells; type: cell-based; conditions: Homo sapiens
Description: as §1, §2

HCT116 = test: MTT cell viability assay, HCT116 colon cancer cells; type: cell-based; conditions: Homo sapiens, HCT-116
Description: as §1, §2

TPC-1 = test: MTT cell viability assay, TPC-1 papillary thyroid carcinoma cells; type: cell-based, human; conditions: for IC50: Homo sapiens, TPC1
Description: as §1, §2, §3

HepG2 = test: MTT cell viability assay, HepG2 hepatocellular carcinoma cells; type: cell-based; conditions: Homo sapiens
Description: as §1, §2

Nthy-ori 3-1 = test: MTT cell viability assay, Nthy-ori 3-1 normal thyroid epithelial cells; type: cell-based; conditions: Homo sapiens
Description: as §1, §2

CCD 841 CoN = test: MTT cell viability assay, CCD 841 CoN normal colon epithelial cells; type: cell-based; conditions: Homo sapiens
Description: as §1, §2

WM793 = test: MTT cell viability assay, WM793 primary melanoma cells; type: cell-based, human; conditions: for IC50: Homo sapiens
Description: as §1, §2, §3

HaCaT = test: MTT cell viability assay, HaCaT keratinocytes; type: cell-based; conditions: Homo sapiens
Description: as §1, §2

HT29 = test: MTT cell viability assay, HT29 colorectal adenocarcinoma cells; type: cell-based; conditions: Homo sapiens, HT-29
Description: as §1, §2

DLD-1 = test: MTT cell viability assay, DLD-1 colon cancer cells; type: cell-based; conditions: Homo sapiens
Description: as §1, §2

MCF10A = test: MTT cell viability assay, MCF10A normal breast epithelial cells; type: cell-based; conditions: Homo sapiens, MCF-10A
Description: as §1, §2

MCF7 = test: MTT cell viability assay, MCF7 breast adenocarcinoma cells; type: cell-based; conditions: Homo sapiens
Description: as §1, §2

LNCaP = test: MTT cell viability assay, LNCaP prostate adenocarcinoma cells; type: cell-based; conditions: Homo sapiens
Description: as §1, §2

8505C = test: MTT cell viability assay, 8505C undifferentiated thyroid carcinoma cells; type: cell-based, human; conditions: Homo sapiens, 8505C
Description: as §1, §2, §3

PC3 = test: MTT cell viability assay, PC3 prostate carcinoma cells; type: cell-based; conditions: Homo sapiens, PC-3
Description: as §1, §2

FTC133 = test: MTT cell viability assay, FTC133 follicular thyroid carcinoma cells; type: cell-based, human; conditions: for IC50: Homo sapiens, FTC-133
Description: as §1, §2, §3

HTB-140 = test: MTT cell viability assay, HTB-140 metastatic melanoma cells; type: cell-based, human; conditions: for IC50: Homo sapiens
Description: as §1, §2, §3

Caco-2 = test: MTT cell viability assay, Caco-2 colon cancer cells; type: cell-based; conditions: Homo sapiens
Description: as §1, §2

CC1(C)CC[C@]2(C(=O)O[C@@H]3O[C@H](CO)[C@@H](O)[C@H](O)[C@H]3O)CC[C@]3(C)C(=CC[C@@H]4[C@@]5(C)CC[C@H](O[C@@H]6O[C@H](C(=O)O)[C@@H](O)[C@H](O)[C@H]6O)C(C)(C)[C@@H]5CC[C@]43C)[C@@H]2C1 [ChIVa, 3-O-β-D-glucuronopyranosyl oleanolic acid 28-O-β-D-glucopyranosyl ester]
IC50 (Du-145; DU-145, 24 h): 22.9 µg/mL
IC50 (Du-145; DU-145, 48 h): 9.1 µg/mL
IC50 (MDA-MB-231; MDA-MB-231, 24 h): > 100 µg/mL
IC50 (MDA-MB-231; MDA-MB-231, 48 h): 98.1 µg/mL
IC50 (A375; A375, 24 h): 1.6 µg/mL
IC50 (A375; A375, 48 h): 0.6 µg/mL
Selectivity Index (SI) (A375; IC50 HaCaT / IC50 A375, 24 h): 4.6
IC50 (PNT2; 24 h): > 100 µg/mL
IC50 (PNT2; 48 h): > 100 µg/mL
IC50 (HCT116; HCT116, 24 h): > 100 µg/mL
IC50 (HCT116; HCT116, 48 h): 78.2 µg/mL
IC50 (TPC-1; TPC-1, 24 h): > 100 µg/mL
IC50 (TPC-1; TPC-1, 48 h): 81.8 µg/mL
Selectivity Index (SI) (TPC-1; IC50 Nthy-ori 3-1 / IC50 TPC-1, 48 h): > 1.2
IC50 (HepG2; HepG2, 24 h): 30 µg/mL
IC50 (HepG2; HepG2, 48 h): 20.9 µg/mL
IC50 (Nthy-ori 3-1; 24 h): > 100 µg/mL
IC50 (Nthy-ori 3-1; 48 h): > 100 µg/mL
IC50 (CCD 841 CoN; 24 h): > 100 µg/mL
IC50 (CCD 841 CoN; 48 h): > 100 µg/mL
IC50 (WM793; WM793, 24 h): 18.5 µg/mL
IC50 (WM793; WM793, 48 h): 4.4 µg/mL
Selectivity Index (SI) (WM793; IC50 HaCaT / IC50 WM793, 24 h): 0.4
Selectivity Index (SI) (WM793; IC50 HaCaT / IC50 WM793, 48 h): 0.7
IC50 (HaCaT; 24 h): 7.3 µg/mL
IC50 (HaCaT; 48 h): 3.1 µg/mL
IC50 (HT29; HT29, 24 h): 14.9 µg/mL
IC50 (HT29; HT29, 48 h): 5.6 µg/mL
IC50 (DLD-1; DLD-1, 24 h): > 100 µg/mL
IC50 (DLD-1; DLD-1, 48 h): 50.3 µg/mL
IC50 (MCF10A; 24 h): > 100 µg/mL
IC50 (MCF10A; 48 h): > 100 µg/mL
IC50 (MCF7; MCF7, 24 h): > 100 µg/mL
IC50 (MCF7; MCF7, 48 h): > 100 µg/mL
IC50 (MCF7; MCF7, MCF-7, incubation time not stated): > 100 µg/mL
IC50 (LNCaP; 24 h): > 100 µg/mL
IC50 (LNCaP; 48 h): > 100 µg/mL
IC50 (8505C; 24 h): > 100 µg/mL
IC50 (8505C; 48 h): > 100 µg/mL
IC50 (PC3; PC3, 24 h): 45.6 µg/mL
IC50 (PC3; PC3, 48 h): 22.8 µg/mL
IC50 (FTC133; FTC133, 24 h): 8.5 µg/mL
IC50 (FTC133; FTC133, 48 h): 4 µg/mL
Selectivity Index (SI) (FTC133; IC50 Nthy-ori 3-1 / IC50 FTC133, 24 h): > 11.76
Selectivity Index (SI) (FTC133; IC50 Nthy-ori 3-1 / IC50 FTC133, 48 h): > 25.1
IC50 (HTB-140; HTB-140, 24 h): 15 µg/mL
IC50 (HTB-140; HTB-140, 48 h): 8.7 µg/mL
Selectivity Index (SI) (HTB-140; IC50 HaCaT / IC50 HTB-140, 24 h): 0.5
Selectivity Index (SI) (HTB-140; IC50 HaCaT / IC50 HTB-140, 48 h): 0.4
IC50 (Caco-2; Caco-2, 24 h): 69 µg/mL
IC50 (Caco-2; Caco-2, 48 h): 15.8 µg/mL
